From ChEMBL document CHEMBL1133972, “Solid-Phase synthesis of a library constructed of aromatic phosphate, long alkyl chains and tryptophane components, and identification of potent dipeptide telomerase inhibitors” (Bioorg Med Chem Lett, 2001)
pIC50: −log10 of the molar value.

Target: Telomerase reverse transcriptase (Homo sapiens, UniProt O14746)
Assay: Inhibitory activity against telomerase extracted from HCT 116 cell lines
Assay type: cell-free

Chain of Telomerase reverse transcriptase (O14746 whole entry): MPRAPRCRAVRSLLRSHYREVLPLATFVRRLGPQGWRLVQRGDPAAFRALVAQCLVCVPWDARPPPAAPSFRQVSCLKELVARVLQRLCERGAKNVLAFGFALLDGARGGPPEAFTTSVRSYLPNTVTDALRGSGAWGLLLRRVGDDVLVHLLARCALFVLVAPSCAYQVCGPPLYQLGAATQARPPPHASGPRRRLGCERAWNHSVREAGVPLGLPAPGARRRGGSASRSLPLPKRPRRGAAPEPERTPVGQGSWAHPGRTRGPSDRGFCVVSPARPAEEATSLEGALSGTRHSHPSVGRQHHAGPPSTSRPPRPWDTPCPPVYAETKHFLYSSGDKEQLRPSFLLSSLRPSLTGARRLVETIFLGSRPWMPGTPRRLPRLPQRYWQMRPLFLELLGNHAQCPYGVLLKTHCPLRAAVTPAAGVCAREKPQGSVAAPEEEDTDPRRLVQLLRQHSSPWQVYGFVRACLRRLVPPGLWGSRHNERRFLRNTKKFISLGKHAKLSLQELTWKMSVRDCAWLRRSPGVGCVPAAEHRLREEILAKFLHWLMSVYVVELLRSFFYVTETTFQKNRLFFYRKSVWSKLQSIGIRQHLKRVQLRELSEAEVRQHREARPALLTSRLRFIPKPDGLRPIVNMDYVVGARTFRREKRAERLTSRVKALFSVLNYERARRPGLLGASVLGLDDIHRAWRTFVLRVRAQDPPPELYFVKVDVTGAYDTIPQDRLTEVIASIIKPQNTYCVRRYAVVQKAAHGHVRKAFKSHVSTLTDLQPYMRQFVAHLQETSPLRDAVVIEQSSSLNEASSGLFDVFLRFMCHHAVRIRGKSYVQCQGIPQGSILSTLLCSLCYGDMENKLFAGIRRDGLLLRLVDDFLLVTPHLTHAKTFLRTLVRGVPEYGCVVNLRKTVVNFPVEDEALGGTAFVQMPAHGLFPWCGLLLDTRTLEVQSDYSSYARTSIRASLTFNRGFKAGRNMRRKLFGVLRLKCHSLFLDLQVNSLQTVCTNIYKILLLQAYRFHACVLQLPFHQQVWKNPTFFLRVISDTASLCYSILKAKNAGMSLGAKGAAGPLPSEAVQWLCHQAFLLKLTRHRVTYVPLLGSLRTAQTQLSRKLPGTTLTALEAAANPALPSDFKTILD

| pIC50 | Structure (SMILES) |
| --- | --- |
| < 4.00 | CC(C)(C)OC(=O)N[C@H](Cc1cc2ccccc2[nH]1)C(=O)N[C@@H](Cc1c[nH]c2ccccc12)C(=O)NCCCCCCCCCCCCOP(=O)(O)Oc1ccccc1Cl (racemic) |
| 4.97 | N[C@H](Cc1cc2ccccc2[nH]1)C(=O)N[C@@H](Cc1c[nH]c2ccccc12)C(=O)NCCCCCCCCCCCCOP(=O)(O)Oc1ccccc1Cl (mixture of isomers) |
| 4.74 | CC(C)(C)OC(=O)N[C@H](Cc1c[nH]c2ccccc12)C(=O)NCCCCCCCCCCCCOP(=O)(O)Oc1ccccc1Cl |
| < 4.00 | Cc1cn(CCCn2cc(CC(=O)NCCOCCOCCOCCOP(=O)(O)Oc3ccccc3Cl)c3ccccc32)c2ccccc12 |
| < 4.00 | CC(C)(C)OC(=O)N[C@@H](Cc1ccccc1)C(=O)N[C@H](Cc1c[nH]c2ccccc12)C(=O)NCCCCCCCCCCCCOP(=O)(O)Oc1ccccc1Cl |
| 4.95 | N[C@@H](Cc1cc2ccccc2[nH]1)C(=O)N[C@@H](Cc1c[nH]c2ccccc12)C(=O)NCCCCCCCCCCCCOP(=O)(O)Oc1ccccc1Cl |
| < 4.00 | N[C@H](Cc1cc2ccccc2[nH]1)C(=O)N[C@@H](Cc1c[nH]c2ccccc12)C(=O)NCCCC(=O)NCC(=O)NCCCCCCOP(=O)(O)Oc1ccccc1Cl (racemic) |
| 4.72 | CC(C)(C)OC(=O)N[C@H](Cc1cc2ccccc2[nH]1)C(=O)N[C@H](Cc1c[nH]c2ccccc12)C(=O)NCCCCCCCCCCCCOP(=O)(O)Oc1ccccc1Cl |
| < 4.00 | CC(C)(C)OC(=O)N[C@@H](Cc1cc2ccccc2[nH]1)C(=O)N[C@@H](Cc1c[nH]c2ccccc12)C(=O)NCCCC(=O)NCC(=O)NCCCCCCOP(=O)(O)Oc1ccccc1Cl |
| < 4.00 | N[C@H](CCC(=O)O)C(=O)N[C@H](Cc1c[nH]c2ccccc12)C(=O)NCCCCCCCCCCCCOP(=O)(O)Oc1ccccc1Cl |
| 5.02 | CC(C)(C)OC(=O)N1CCC[C@@H]1C(=O)N[C@H](Cc1c[nH]c2ccccc12)C(=O)NCCCCCCCCCCCCOP(=O)(O)Oc1ccccc1Cl |
| 4.86 | N[C@H](Cc1cc2ccccc2[nH]1)C(=O)N[C@H](Cc1c[nH]c2ccccc12)C(=O)NCCCCCCCCCCCCOP(=O)(O)Oc1ccccc1Cl |
| 6.52 | CC(C)(C)OC(=O)N[C@@H](Cc1cc2ccccc2[nH]1)C(=O)N[C@@H](Cc1c[nH]c2ccccc12)C(=O)NCCCCCCCCCCCCOP(=O)(O)Oc1ccccc1Cl |
| 5.17 | CC(C)(C)OC(=O)N[C@H](Cc1ccccc1)C(=O)N[C@H](Cc1c[nH]c2ccccc12)C(=O)NCCCCCCCCCCCCOP(=O)(O)Oc1ccccc1Cl |
| 4.53 | O=C(CCCc1c[nH]c2ccccc12)NCCCCCCCCCCCCOP(=O)(O)Oc1ccccc1Cl |
| 4.66 | N[C@H](Cc1ccccc1)C(=O)N[C@H](Cc1c[nH]c2ccccc12)C(=O)NCCCCCCCCCCCCOP(=O)(O)Oc1ccccc1Cl |
| 5.44 | Cc1cn(CCCn2cc(CC(=O)NCCCCCCCCCCCCOP(=O)(O)Oc3ccccc3Cl)c3ccccc32)c2ccccc12 |
| < 4.00 | CC(C)(C)OC(=O)N[C@H](Cc1c[nH]c2ccccc12)C(=O)NCCCCCCOP(=O)(O)Oc1ccccc1Cl |
| < 4.00 | N[C@@H](Cc1ccccc1)C(=O)N[C@H](Cc1c[nH]c2ccccc12)C(=O)NCCCCCCCCCCCCOP(=O)(O)Oc1ccccc1Cl (mixture of isomers) |
| 5.14 | O=C(N[C@H](Cc1c[nH]c2ccccc12)C(=O)NCCCCCCCCCCCCOP(=O)(O)Oc1ccccc1Cl)c1ccccc1 |

| pIC50 | Structure (SMILES) |
| --- | --- |
| < 4.00 | N[C@H](Cc1c[nH]c2ccccc12)C(=O)NCCCCCCOP(=O)(O)Oc1ccccc1Cl |
| < 4.00 | CC(C)(C)OC(=O)N[C@H](Cc1cc2ccccc2[nH]1)C(=O)N[C@H](Cc1c[nH]c2ccccc12)C(=O)NCCCC(=O)NCC(=O)NCCCCCCOP(=O)(O)Oc1ccccc1Cl |
| 4.34 | N[C@H](Cc1c[nH]c2ccccc12)C(=O)NCCCCCCCCCCCCOP(=O)(O)Oc1ccccc1Cl |
| 5.44 | O=C(N[C@H](Cc1c[nH]c2ccccc12)C(=O)NCCCCCCCCCCCCOP(=O)(O)Oc1ccccc1Cl)OCc1ccccc1 |
| 5.19 | CC(C)(C)OC(=O)N[C@H](CCC(=O)OCc1ccccc1)C(=O)N[C@H](Cc1c[nH]c2ccccc12)C(=O)NCCCCCCCCCCCCOP(=O)(O)Oc1ccccc1Cl |
| < 4.00 | CC(C)(C)OC(=O)N[C@@H](Cc1cc2ccccc2[nH]1)C(=O)N[C@H](Cc1c[nH]c2ccccc12)C(=O)NCCCCCCCCCCCCOP(=O)(O)Oc1ccccc1Cl (mixture of isomers) |
| 4.33 | Cc1cn(CCCn2cc(CC(=O)NCCCC(=O)N3CCCC3C(=O)NCCCCCCOP(=O)(O)Oc3ccccc3Cl)c3ccccc32)c2ccccc12 (stereo not drawn) |
| 4.82 | N[C@@H](Cc1c[nH]c2ccccc12)C(=O)NCCCCCCCCCCCCOP(=O)(O)Oc1ccccc1Cl |
| < 4.00 | CC(C)(C)OC(=O)N[C@@H](Cc1cc2ccccc2[nH]1)C(=O)N[C@H](Cc1c[nH]c2ccccc12)C(=O)NCCCC(=O)NCC(=O)NCCCCCCOP(=O)(O)Oc1ccccc1Cl |
| < 4.00 | Cc1cn(CCCn2cc(CC(=O)NCCCC(=O)NCC(=O)NCCCCCCOP(=O)(O)Oc3ccccc3Cl)c3ccccc32)c2ccccc12 |
| < 4.00 | N[C@@H](Cc1cc2ccccc2[nH]1)C(=O)N[C@@H](Cc1c[nH]c2ccccc12)C(=O)NCCCC(=O)NCC(=O)NCCCCCCOP(=O)(O)Oc1ccccc1Cl |
| < 4.00 | CC(C)(C)OC(=O)N[C@H](Cc1cc2ccccc2[nH]1)C(=O)N[C@@H](Cc1c[nH]c2ccccc12)C(=O)NCCCC(=O)NCC(=O)NCCCCCCOP(=O)(O)Oc1ccccc1Cl (mixture of isomers) |
| 4.68 | CC(C)(C)OC(=O)N[C@@H](Cc1c[nH]c2ccccc12)C(=O)NCCCCCCCCCCCCOP(=O)(O)Oc1ccccc1Cl |
| < 4.00 | CC(C)(C)OC(=O)N[C@H](CCC(=O)O)C(=O)N[C@H](Cc1c[nH]c2ccccc12)C(=O)NCCCCCCCCCCCCOP(=O)(O)Oc1ccccc1Cl |
| 4.47 | O=C(Cc1c[nH]c2ccccc12)NCCCCCCCCCCCCOP(=O)(O)Oc1ccccc1Cl |
| 4.53 | Cc1cn(CCCn2cc(CC(=O)NCCCCCCOP(=O)(O)Oc3ccccc3Cl)c3ccccc32)c2ccccc12 |
| < 4.00 | N[C@@H](Cc1cc2ccccc2[nH]1)C(=O)N[C@H](Cc1c[nH]c2ccccc12)C(=O)NCCCC(=O)NCC(=O)NCCCCCCOP(=O)(O)Oc1ccccc1Cl |
| < 4.00 | O=C(N[C@H](Cc1c[nH]c2ccccc12)C(=O)NCCCCCCCCCCCCOP(=O)(O)Oc1ccccc1Cl)[C@H]1CCCN1 |
| < 4.00 | N[C@H](Cc1cc2ccccc2[nH]1)C(=O)N[C@H](Cc1c[nH]c2ccccc12)C(=O)NCCCC(=O)NCC(=O)NCCCCCCOP(=O)(O)Oc1ccccc1Cl |
| 4.92 | O=C(CNC(=O)OCc1ccccc1)N[C@H](Cc1c[nH]c2ccccc12)C(=O)NCCCCCCCCCCCCOP(=O)(O)Oc1ccccc1Cl |

| Structure (SMILES) | pIC50 |
| --- | --- |
| CC(=O)N[C@H](Cc1cc2ccccc2[nH]1)C(=O)N[C@H](Cc1c[nH]c2ccccc12)C(=O)NCCCCCCCCCCCCOP(=O)(O)Oc1ccccc1Cl | 4.64 |
| O=C(N[C@H](Cc1ccccc1)C(=O)NCCCCCCCCCCCCOP(=O)(O)Oc1ccccc1Cl)OCc1ccccc1 | < 4.00 |
| CC(=O)N[C@H](Cc1c[nH]c2ccccc12)C(=O)NCCCCCCCCCCCCOP(=O)(O)Oc1ccccc1Cl | 4.04 |
